System: ERK1/2 phosphorylation of p90RSK in HT29 cells
Test: pRSK MSD Assay in HT29 cells
Assay type: cell-based
Details: Homo sapiens, HT-29, read-out: ERK1/ERK2 PRSK MSD HT29 EC50
Description: The protocol below describes an assay to measure the kinase activity of ERK1/2 to phosphorylate a substrate, p90RSK, in the presence or absence of a test compound. This experiment was conducted using a Mesoscale Discovery plate. The day before the assay, HT29 cells were split and plated at 50,000 cells/well in complete growth media. After allowing cells to adhere, the media was removed and replaced with media containing 0.1% FBS and incubated overnight. Blank MSD plates (Mesoscale Discovery, Cat # L15XA3) were coated with 25 μl/well RSK capture antibody (BD Biosciences, Cat. #610226) and incubated at 4° C. overnight, then blocked with 150 μl of 3% BSA solution. The next day, the media from the cell culture plate was removed and replaced with 100 μl of media containing a test compound and incubated for 120 minutes at 37° C. The media was removed and replaced with 55 μl per well of lysis buffer with protease inhibitors (Roche Biosciences, Cat. #11836170001) and phosphatase inhibitors (Sigma-Aldrich, Cat. # P-0044 and P-5726), followed by incubation at 4° C. for 30 minutes. 50 μl of lysate was transferred to a blocked MSD plate, followed by incubation at room temperature for 2 hours under constant shaking. The plate was washed 3 times with MSD wash buffer (Mesoscale Discovery, Cat. # R617TX), and 25 μl/well phospho-RSK (pRSK) detection antibody (Cell Signaling Technology, Cat. #9335) was added with Sulfo-tagged detection antibody (Mesoscale Discovery, Cat. # R32AB-1) diluted in 1% BSA in MSD wash buffer. This mixture was incubated for 1 hour at room temperature under constant shaking. The plate was washed 3 times, and 150 μl 1×MSD read buffer was added, followed by signal detection in an MSD plate reader.

First: CC#CC(=O)N[C@@H]1CCCC[C@H]1Nc1nc(N[C@H]2CCCN(C(=O)CO)C2)ncc1C(F)(F)F [Compound I-33, N-((1R,2R)-2-((2-(((S)-1-(2-Hydroxyacetyl)piperidin-3-yl)amino)-5-(trifluoromethyl)pyrimidin-4-yl)amino)cyclohexyl)but-2-ynamide]
Second: C=CS(=O)(=O)N[C@@H]1CCCC[C@H]1Nc1nc(N[C@H]2CCCN(C(=O)CO)C2)ncc1C(F)(F)F [Compound I-36, N-((1R,2R)-2-((2-(((S)-1-(2-Hydroxyacetyl)piperidin-3-yl)amino)-5-(trifluoromethyl)pyrimidin-4-yl)amino)cyclohexyl)ethenesulfonamide]
The EC50 of the first is higher: over 1000 nM for the first, 501 to 999 nM for the second. The second is the more potent here.

`C=CC(=O)Nc1ccccc1Nc1nc(N[C@@H]2CCN(C(=O)OC)C2)ncc1C(F)(F)F` [Compound I-61, (R)-Methyl 3-((4-((2-Acrylamidophenyl)amino)-5-(trifluoromethyl)pyrimidin-2-yl)amino)pyrrolidine-1-carboxylate] and `CC#CC(=O)Nc1ccccc1Nc1nc(N[C@H]2CCCN(C(=O)CO)C2)ncc1C(F)(F)F` [Compound I-29, (S)—N-(2-((2-((1-(2-Hydroxyacetyl)piperidin-3-yl)amino)-5-(trifluoromethyl)pyrimidin-4-yl)amino)phenyl)but-2-ynamide] cannot be ordered by EC50: over 1000 nM for the first, over 1000 nM for the second.

First: C=CC(=O)Nc1ccccc1Nc1nc(N[C@H]2CCCN(C(=O)C(C)C)C2)ncc1Cl [Compound I-137, (S)—N-(2-((5-chloro-2-((1-isobutyrylpiperidin-3-yl)amino)pyrimidin-4-yl)amino)phenyl)acrylamide]
Second: C=CC(=O)Nc1cc(C)ccc1Nc1nc(N[C@H]2CCCN(C(=O)c3ccccc3)C2)ncc1C(F)(F)F [Compound I-44, (S)—N-(2-((2-((1-Benzoylpiperidin-3-yl)amino)-5-(trifluoromethyl)pyrimidin-4-yl)amino)-5-methylphenyl)acrylamide]
The EC50 of the first is lower: 501 to 999 nM for the first, over 1000 nM for the second. The first is the more potent here.

`CC(C)=CC(=O)c1ccccc1Oc1nc(Nc2cc(C(N)=O)ccc2C)ncc1C(N)=O` [Compound I-271, 2-((5-carbamoyl-2-methylphenyl)amino)-4-(2-(3-methylbut-2-enoyl)phenoxy)pyrimidine-5-carboxamide] and `C/C=C/C(=O)Nc1ccccc1Nc1nc(Nc2cc(C(N)=O)ccc2C)ncc1Cl` [Compound I-219, (E)-3-((4-((2-(but-2-enamido)phenyl)amino)-5-chloropyrimidin-2-yl)amino)-4-methylbenzamide] cannot be ordered by EC50: over 1000 nM for the first, over 1000 nM for the second.

`Cc1ccc(C(N)=O)cc1Nc1ncc(Cl)c(Nc2ccccc2NC(=O)/C=C/CN(C)C)n1` [Compound I-218, (E)-3-((5-chloro-4-((2-(4-(dimethylamino)but-2-enamido)phenyl)amino)pyrimidin-2-yl)amino)-4-methylbenzamide] and `C=CC(=O)N[C@H]1CCCC1Nc1nc(N[C@H]2CCCN(C(C)=O)C2)ncc1C(F)(F)F` (stereo in doubt) [Compound I-24, N-((1S,2S)-2-((2-(((S)-1-Acetylpiperidin-3-yl)amino)-5-(trifluoromethyl)pyrimidin-4-yl)amino)cyclopentyl)acrylamide] cannot be ordered by EC50: over 1000 nM for the first, over 1000 nM for the second.

Biological target: T1, MEK1 activated ERK1 (Homo sapiens, UniProt P27361)
T1 construct: purchased Millipore (Billerica, Mass.) 14-439-K
T1 sequence (P27361 whole entry): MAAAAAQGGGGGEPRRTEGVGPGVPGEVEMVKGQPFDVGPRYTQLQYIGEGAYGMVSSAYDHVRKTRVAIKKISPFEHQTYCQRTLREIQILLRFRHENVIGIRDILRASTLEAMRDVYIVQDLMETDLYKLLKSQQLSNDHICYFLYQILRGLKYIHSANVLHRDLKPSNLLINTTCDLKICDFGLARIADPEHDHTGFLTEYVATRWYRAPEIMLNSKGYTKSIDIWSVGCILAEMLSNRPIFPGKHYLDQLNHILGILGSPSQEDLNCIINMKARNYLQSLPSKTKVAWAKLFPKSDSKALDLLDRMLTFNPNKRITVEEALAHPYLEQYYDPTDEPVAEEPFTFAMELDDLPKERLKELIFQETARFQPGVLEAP
Test: Omnia continuous-read kinase assay for potency against MEK1 activated ERK1
Assay type: biochemical
Details: MEK1 activated ERK1, ATP at KM; read-out: ERK1 Omnia WT ATP KM IC50
Text: Omnia Assay Protocol for Potency Assessment Against MEK1 Activated ERK1:
The protocol below describes continuous-read kinase assays to measure potency of compounds against activated ERK1 enzyme. The mechanics of the assay platform are best described by the vendor (Invitrogen, Carlsbad, Calif.) on their website at the following URL: invitrogen.com/site/us/en/home.html.
Briefly, a 1.25× stock of ERK1 enzyme (14-439-K) from Millipore (Billerica, Mass.), 5×ATP (AS001A) and ST17-Sox conjugated peptide substrate (KNZ1171C) were prepared in 1× kinase reaction buffer consisting of 20 mM Tris, pH 7.5, 5 mM MgCl2, 1 mM EGTA, 5 mM β-glycerophosphate, 5% glycerol (10× stock, KB002A) and 0.2 mM DTT. 10 μL of ATP/ST17-sox peptide substrate mix was combined with 0.5 μL volume of 100% DMSO and serially diluted compounds were prepared in 100% DMSO in a Corning (#3574) 384-well, white, non-binding surface microtiter plate (Corning, N.Y.). Kinase reactions were started with the addition of 40 μL of ERK1 solution and monitored every 71 seconds for 30-240 minutes at λex360/λem485 in a Synergy plate reader from BioTek (Winooski, Vt.). At the conclusion of each assay, progress curves from each well were examined for linear reaction kinetics and fit statistics (R^2, 95% confidence interval, absolute sum of squares). Initial velocity (0 minutes to ˜30+ minutes) from each reaction was determined from the slope of a plot of relative fluorescence units vs time (minutes or seconds) and then plotted against inhibitor concentration to estimate ^AppIC50 from log [Inhibitor] vs Response, Variable Slope model in GraphPad Prism from GraphPad Software (San Diego, Calif.).
[Reagent] used in optimized protocol:
[ERK1]=4 nM, [ATP]=50 μM, [ST17-Sox]=10 μM (ATP ^appKM 48 μM)
The results of this assay show the degree of inhibition of ERK activity, which is a direct measurement of inhibition of ERK activity. Results from this assay are reported in Table A under the column “ERK1 Omnia WT ATP KM IC50 (nM).”

`C=C(C)S(=O)(=O)Nc1ccccc1Nc1nc(Nc2cc(C(C)=O)ccc2C)ncc1C(F)(F)F` [Compound I-97, N-(2-((2-((5-acetyl-2-methylphenyl)amino)-5-(trifluoromethyl)pyrimidin-4-yl)amino)phenyl)prop-1-ene-2-sulfonamide] and `C=CC(=O)Nc1ccccc1Nc1nc(Nc2ccc(N(CCCNC(=O)OC(C)(C)C)C(C)=O)cc2C(F)(F)F)ncc1Cl` [Compound I-169, tert-butyl(3-(N-(4-((4-((2-acrylamidophenyl)amino)-5-chloropyrimidin-2-yl)amino)-3-(trifluoromethyl)phenyl)acetamido)propyl)carbamate] fall in the same range of IC50: 501 to 999 nM for the first, 501 to 999 nM for the second.

First: C=CC(=O)Nc1ccccc1Nc1nc(N[C@H]2CCCN(C(=O)C(C)=O)C2)ncc1C(F)(F)F [Compound I-49, (S)—N-(2-((2-((1-(2-Oxopropanoyl)piperidin-3-yl)amino)-5-(trifluoromethyl)pyrimidin-4-yl)amino)phenyl)acrylamide]
Second: C=CC(=O)Nc1ccccc1Nc1nc(N[C@H]2CCCN(C(=O)[C@H](O)CO)C2)ncc1C(F)(F)F [Compound I-51, N-(2-((2-(((S)-1-((R)-2,3-Dihydroxypropanoyl)piperidin-3-yl)amino)-5-(trifluoromethyl)pyrimidin-4-yl)amino)phenyl)acrylamide]
The IC50 of the first is higher: 501 to 999 nM for the first, 101 to 500 nM for the second. The second is the more potent here.

First: C=CC(=O)Nc1cc(OC)ccc1Nc1nc(Nc2ccc(N3CCN(C(C)=O)CC3)cc2OC)ncc1Cl [Compound I-152, N-(2-((2-((4-(4-acetylpiperazin-1-yl)-2-methoxyphenyl)amino)-5-chloropyrimidin-4-yl)amino)-5-methoxyphenyl)acrylamide]
Second: C=CC(=O)Nc1cc(OC)ccc1Nc1nc(Nc2ccc(N(CC)C(C)=O)cc2OC)ncc1Cl [Compound I-175, N-(2-((5-chloro-2-((4-(N-ethylacetamido)-2-methoxyphenyl)amino)pyrimidin-4-yl)amino)-5-methoxyphenyl)acrylamide]
The IC50 of the first is higher: 501 to 999 nM for the first, 101 to 500 nM for the second. The second is the more potent here.

`C=CC(=O)Nc1ccccc1Nc1nc(N[C@H]2CC[C@H](OC)CC2)ncc1Cl` [Compound I-100] and `C=CC(=O)Nc1ccccc1Nc1nc(N[C@H]2CC[C@H](C(N)=O)CC2)ncc1Cl` [Compound I-129, trans-4-((4-((2-acrylamidophenyl)amino)-5-chloropyrimidin-2-yl)amino)-cyclohexanecarboxamide] fall in the same range of IC50: 101 to 500 nM for the first, 101 to 500 nM for the second.

Compared with `C=CC(=O)N[C@@H]1CCCC[C@H]1Oc1nc(Nc2cc(C(N)=O)ccc2C)ncc1C(N)=O` (racemic) [Compound I-268, Rac-trans-4-((2-acrylamidocyclohexyl)oxy)-2-((5-carbamoyl-2-methylphenyl)amino)pyrimidine-5-carboxamide], `C=CC(=O)Nc1ccccc1Nc1nc(N[C@@H]2CCC[C@H](C(=O)NOC)C2)ncc1C(F)(F)F` (racemic) [Compound I-3, Rac-cis-3-((4-((2-acrylamidophenyl)amino)-5-(trifluoromethyl)pyrimidin-2-yl)amino)-N-methoxycyclohexanecarboxamide] is lower in IC50: over 1000 nM for the first, 101 to 500 nM for the second. The second is the more potent here.

`C=CC(=O)Nc1ccccc1Nc1nc(N[C@H]2CC[C@H](C(N)=O)CC2)ncc1C(F)(F)F` [Compound I-16, 4-((4-((2-acrylamidophenyl)amino)-5-(trifluoromethyl)pyrimidin-2-yl)amino)-trans-cyclohexanecarboxamide] and `C=CC(=O)Nc1ccccc1Nc1nc(N[C@@H]2CCC[C@H](C(=O)NOCCO)C2)ncc1C(F)(F)F` (racemic) [Compound I-4, Rac-cis-3-((4-((2-acrylamidophenyl)amino)-5-(trifluoromethyl)pyrimidin-2-yl)amino)-N-(2-hydroxyethoxyl)cyclohexanecarboxamide] fall in the same range of IC50: 101 to 500 nM for the first, 101 to 500 nM for the second.

First: C=CC(=O)Nc1ccccc1Nc1nc(N[C@@H]2CCCN(C(C)=O)C2)ncc1Cl [Compound I-128, (R)—N-(2-((2-((1-acetylpiperidin-3-yl)amino)-5-chloropyrimidin-4-yl)amino)phenyl)acrylamide]
Second: C=CC(=O)Nc1cc(OC)ccc1Nc1nc(Nc2ccc(N3CCC[C@H]3CO)cc2C#N)ncc1Cl [Compound I-163, (S)—N-(2-((5-chloro-2-((2-cyano-4-(2-(hydroxymethyl)pyrrolidin-1-yl)phenyl)amino)pyrimidin-4-yl)amino)-5-methoxyphenyl)acrylamide]
The IC50 of the first is lower: 101 to 500 nM for the first, 501 to 999 nM for the second. The first is the more potent here.
